{"source": "PubChem BioAssay (NCI)", "assay_in_all_cases": "growth of human tumour cells (NCI), 48 h", "key": {"[1]": {"system": "MCF7 breast"}, "[2]": {"system": "SW-620 colon"}, "[3]": {"system": "UACC-257 melanoma"}, "[4]": {"system": "PC-3 prostate"}, "[5]": {"system": "NCI/ADR-RES ovarian"}, "[6]": {"system": "LOX IMVI melanoma"}, "[7]": {"system": "NCI-H522 lung"}, "[8]": {"system": "HOP-62 NSCLC"}, "[9]": {"system": "A498 renal"}, "[10]": {"system": "MOLT-4 leukemia"}, "[11]": {"system": "HOP-92 NSCLC"}, "[12]": {"system": "MDA-MB-435"}, "[13]": {"system": "SNB-19 CNS"}, "[14]": {"system": "SF-295 CNS"}, "[15]": {"system": "KM12 colon"}, "[16]": {"system": "TK-10 renal"}, "[17]": {"system": "U251 CNS"}, "[18]": {"system": "UACC-62 melanoma"}, "[19]": {"system": "SK-MEL-28 melanoma"}}, "note": "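Each compound was tested at five concentrations against cells in 96-well plates for 48 hours. The concentration for full growth arrest is given as TGI.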"}
{"compound": "C/C=C(/C)C(=O)O[C@H]1[C@H]2[C@@H]([C@@H](OC(C)=O)[C@H](C)C(=O)[C@@]34C[C@@H](C)C(=O)[C@]3(/C=C(\\C)[C@H]1OC(C)=O)O4)C2(C)C", "values": [{"measurement": "TGI", "setting": "[1]", "value": 5.98, "unit": "µM"}, {"measurement": "TGI", "setting": "[2]", "value": 6.41, "unit": "µM"}, {"measurement": "TGI", "setting": "[3]", "value": 10.9, "unit": "µM"}, {"measurement": "TGI", "setting": "[4]", "value": 15.8, "unit": "µM"}, {"measurement": "TGI", "setting": "[5]", "value": 8.03, "unit": "µM"}, {"measurement": "TGI", "setting": "[6]", "value": 6.27, "unit": "µM"}, {"measurement": "TGI", "setting": "[7]", "value": 6.29, "unit": "µM"}, {"measurement": "TGI", "setting": "[8]", "value": 12, "unit": "µM"}, {"measurement": "TGI", "setting": "[9]", "value": 16, "unit": "µM"}, {"measurement": "TGI", "setting": "[10]", "value": 6.46, "unit": "µM"}, {"measurement": "TGI", "setting": "[11]", "value": 7.73, "unit": "µM"}, {"measurement": "TGI", "setting": "[12]", "value": 6.6, "unit": "µM"}, {"measurement": "TGI", "setting": "[13]", "value": 18.4, "unit": "µM"}, {"measurement": "TGI", "setting": "[14]", "value": "> 20", "unit": "µM"}, {"measurement": "TGI", "setting": "[15]", "value": 17.8, "unit": "µM"}, {"measurement": "TGI", "setting": "[16]", "value": 7.61, "unit": "µM"}, {"measurement": "TGI", "setting": "[17]", "value": "> 20", "unit": "µM"}, {"measurement": "TGI", "setting": "[18]", "value": 6.99, "unit": "µM"}]}
{"compound": "O=C(NCCCNCCN1C(=O)c2cccc3cc([N+](=O)[O-])cc(c23)C1=O)c1cc(-c2ccccc2)nc2ccccc12", "values": [{"measurement": "TGI", "setting": "[1]", "value": 6.51, "unit": "µM"}, {"measurement": "TGI", "setting": "[2]", "value": 5.37, "unit": "µM"}, {"measurement": "TGI", "setting": "[3]", "value": 3.95, "unit": "µM"}, {"measurement": "TGI", "setting": "[4]", "value": 16.7, "unit": "µM"}, {"measurement": "TGI", "setting": "[5]", "value": 17.3, "unit": "µM"}, {"measurement": "TGI", "setting": "[6]", "value": 2.93, "unit": "µM"}, {"measurement": "TGI", "setting": "[7]", "value": 9.95, "unit": "µM"}, {"measurement": "TGI", "setting": "[8]", "value": 20.5, "unit": "µM"}, {"measurement": "TGI", "setting": "[19]", "value": 3.44, "unit": "µM"}, {"measurement": "TGI", "setting": "[9]", "value": 8.87, "unit": "µM"}, {"measurement": "TGI", "setting": "[10]", "value": 6.01, "unit": "µM"}, {"measurement": "TGI", "setting": "[11]", "value": 15, "unit": "µM"}, {"measurement": "TGI", "setting": "[12]", "value": 2.91, "unit": "µM"}, {"measurement": "TGI", "setting": "[13]", "value": 18.9, "unit": "µM"}, {"measurement": "TGI", "setting": "[14]", "value": 14.8, "unit": "µM"}, {"measurement": "TGI", "setting": "[15]", "value": 18.6, "unit": "µM"}, {"measurement": "TGI", "setting": "[16]", "value": 21.8, "unit": "µM"}, {"measurement": "TGI", "setting": "[17]", "value": 9.12, "unit": "µM"}, {"measurement": "TGI", "setting": "[18]", "value": 17.4, "unit": "µM"}]}
{"compound": "CC(=O)NC(Cc1ccccc1)NC(=O)O", "note": "(stereo not drawn)", "values": [{"measurement": "TGI", "setting": "[1]", "value": "> 100", "unit": "µM"}, {"measurement": "TGI", "setting": "[2]", "value": "> 100", "unit": "µM"}, {"measurement": "TGI", "setting": "[3]", "value": "> 100", "unit": "µM"}, {"measurement": "TGI", "setting": "[4]", "value": "> 100", "unit": "µM"}, {"measurement": "TGI", "setting": "[5]", "value": "> 100", "unit": "µM"}, {"measurement": "TGI", "setting": "[6]", "value": "> 100", "unit": "µM"}, {"measurement": "TGI", "setting": "[7]", "value": "> 100", "unit": "µM"}, {"measurement": "TGI", "setting": "[8]", "value": "> 100", "unit": "µM"}, {"measurement": "TGI", "setting": "[19]", "value": "> 100", "unit": "µM"}, {"measurement": "TGI", "setting": "[9]", "value": "> 100", "unit": "µM"}, {"measurement": "TGI", "setting": "[10]", "value": "> 100", "unit": "µM"}, {"measurement": "TGI", "setting": "[11]", "value": "> 100", "unit": "µM"}, {"measurement": "TGI", "setting": "[12]", "value": "> 100", "unit": "µM"}, {"measurement": "TGI", "setting": "[13]", "value": "> 100", "unit": "µM"}, {"measurement": "TGI", "setting": "[14]", "value": "> 100", "unit": "µM"}, {"measurement": "TGI", "setting": "[15]", "value": "> 100", "unit": "µM"}, {"measurement": "TGI", "setting": "[16]", "value": "> 100", "unit": "µM"}, {"measurement": "TGI", "setting": "[17]", "value": "> 100", "unit": "µM"}, {"measurement": "TGI", "setting": "[18]", "value": "> 100", "unit": "µM"}]}
{"compound": "COc1cc2cc(C(=O)N3CC(CCl)c4ccc([N+](=O)[O-])cc43)[nH]c2c(OC)c1OC", "note": "(stereo not drawn)", "values": [{"measurement": "TGI", "setting": "[1]", "value": "> 100", "unit": "µM"}, {"measurement": "TGI", "setting": "[2]", "value": "> 100", "unit": "µM"}, {"measurement": "TGI", "setting": "[3]", "value": "> 100", "unit": "µM"}, {"measurement": "TGI", "setting": "[4]", "value": "> 100", "unit": "µM"}, {"measurement": "TGI", "setting": "[5]", "value": "> 100", "unit": "µM"}, {"measurement": "TGI", "setting": "[6]", "value": "> 100", "unit": "µM"}, {"measurement": "TGI", "setting": "[7]", "value": "> 100", "unit": "µM"}, {"measurement": "TGI", "setting": "[8]", "value": "> 100", "unit": "µM"}, {"measurement": "TGI", "setting": "[19]", "value": "> 100", "unit": "µM"}, {"measurement": "TGI", "setting": "[9]", "value": "> 100", "unit": "µM"}, {"measurement": "TGI", "setting": "[10]", "value": "> 100", "unit": "µM"}, {"measurement": "TGI", "setting": "[11]", "value": "> 100", "unit": "µM"}, {"measurement": "TGI", "setting": "[12]", "value": "> 100", "unit": "µM"}, {"measurement": "TGI", "setting": "[13]", "value": "> 100", "unit": "µM"}, {"measurement": "TGI", "setting": "[14]", "value": "> 100", "unit": "µM"}, {"measurement": "TGI", "setting": "[15]", "value": "> 100", "unit": "µM"}, {"measurement": "TGI", "setting": "[16]", "value": "> 100", "unit": "µM"}, {"measurement": "TGI", "setting": "[17]", "value": "> 100", "unit": "µM"}, {"measurement": "TGI", "setting": "[18]", "value": "> 100", "unit": "µM"}]}
{"compound": "N/N=C(\\c1nc2ccc([N+](=O)[O-])cc2[nH]c1=O)C(O)c1ccc(Cl)c(Cl)c1", "note": "(stereo not drawn)", "values": [{"measurement": "TGI", "setting": "[1]", "value": "> 100", "unit": "µM"}, {"measurement": "TGI", "setting": "[2]", "value": "> 100", "unit": "µM"}, {"measurement": "TGI", "setting": "[3]", "value": "> 100", "unit": "µM"}, {"measurement": "TGI", "setting": "[4]", "value": "> 100", "unit": "µM"}, {"measurement": "TGI", "setting": "[5]", "value": "> 100", "unit": "µM"}, {"measurement": "TGI", "setting": "[6]", "value": "> 100", "unit": "µM"}, {"measurement": "TGI", "setting": "[7]", "value": "> 100", "unit": "µM"}, {"measurement": "TGI", "setting": "[8]", "value": "> 100", "unit": "µM"}, {"measurement": "TGI", "setting": "[19]", "value": "> 100", "unit": "µM"}, {"measurement": "TGI", "setting": "[9]", "value": "> 100", "unit": "µM"}, {"measurement": "TGI", "setting": "[10]", "value": "> 100", "unit": "µM"}, {"measurement": "TGI", "setting": "[11]", "value": "> 100", "unit": "µM"}, {"measurement": "TGI", "setting": "[12]", "value": "> 100", "unit": "µM"}, {"measurement": "TGI", "setting": "[13]", "value": "> 100", "unit": "µM"}, {"measurement": "TGI", "setting": "[14]", "value": "> 100", "unit": "µM"}, {"measurement": "TGI", "setting": "[15]", "value": "> 100", "unit": "µM"}, {"measurement": "TGI", "setting": "[16]", "value": "> 100", "unit": "µM"}, {"measurement": "TGI", "setting": "[17]", "value": "> 100", "unit": "µM"}, {"measurement": "TGI", "setting": "[18]", "value": "> 100", "unit": "µM"}]}
{"compound": "CC(O)CN1c2ccccc2Sc2ccccc21", "note": "(stereo not drawn)", "values": [{"measurement": "TGI", "setting": "[1]", "value": "> 100", "unit": "µM"}, {"measurement": "TGI", "setting": "[2]", "value": "> 100", "unit": "µM"}, {"measurement": "TGI", "setting": "[3]", "value": "> 100", "unit": "µM"}, {"measurement": "TGI", "setting": "[4]", "value": "> 100", "unit": "µM"}, {"measurement": "TGI", "setting": "[5]", "value": "> 100", "unit": "µM"}, {"measurement": "TGI", "setting": "[6]", "value": "> 100", "unit": "µM"}, {"measurement": "TGI", "setting": "[7]", "value": "> 100", "unit": "µM"}, {"measurement": "TGI", "setting": "[8]", "value": "> 100", "unit": "µM"}, {"measurement": "TGI", "setting": "[19]", "value": "> 100", "unit": "µM"}, {"measurement": "TGI", "setting": "[9]", "value": "> 100", "unit": "µM"}, {"measurement": "TGI", "setting": "[10]", "value": "> 100", "unit": "µM"}, {"measurement": "TGI", "setting": "[11]", "value": "> 100", "unit": "µM"}, {"measurement": "TGI", "setting": "[12]", "value": "> 100", "unit": "µM"}, {"measurement": "TGI", "setting": "[13]", "value": "> 100", "unit": "µM"}, {"measurement": "TGI", "setting": "[14]", "value": "> 100", "unit": "µM"}, {"measurement": "TGI", "setting": "[15]", "value": "> 100", "unit": "µM"}, {"measurement": "TGI", "setting": "[16]", "value": "> 100", "unit": "µM"}, {"measurement": "TGI", "setting": "[17]", "value": "> 100", "unit": "µM"}, {"measurement": "TGI", "setting": "[18]", "value": "> 100", "unit": "µM"}]}
